In PMC6001238, “Iterative Chemical Engineering of Vancomycin Leads to Novel Vancomycin Analogs With a High in Vitro Therapeutic Index” (Frontiers in Microbiology, 2018):
Converted amounts (≈) assume the structure as drawn.

Legend:
[1] = test system: E. faecalis VSE 1; assay: MIC, broth microdilution, vancomycin-sensitive E. faecalis (VSE 1); type: cell-based, Enterococcus faecalis; conditions: for MIC: Enterococcus faecalis VSE 1 (vancomycin-sensitive), read-out: MIC; for MIC-fold improvement vs. vancomycin: VSE 1, ratio of MIC of vancomycin and MIC of analogue
How it was run: (§1)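 MIC values come from broth microdilution run to CLSI susceptibility-testing standards. Ultrapure water and uninoculated broth served as controls. In one series, vancomycin at a final 10 μM was co-dosed with the analogue or comparator antibiotic.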

[2] = test system: E. faecalis VRE 6; assay: MIC, broth microdilution, vancomycin-resistant E. faecalis VRE 6 (VanA); type: cell-based, Enterococcus faecalis; conditions: for MIC: Enterococcus faecalis VRE 6 (vancomycin-resistant), read-out: MIC; for MIC-fold improvement vs. vancomycin: VRE 6, ratio of MIC of vancomycin and MIC of analogue
How it was run: as §1

[3] = test system: E. faecalis VRE 53; assay: MIC, broth microdilution, vancomycin-resistant E. faecalis VRE 53 (VanA); type: cell-based, Enterococcus faecalis; conditions: for MIC: Enterococcus faecalis VRE 53 (vancomycin-resistant), read-out: MIC; for MIC-fold improvement vs. vancomycin: VRE 53, ratio of MIC of vancomycin and MIC of analogue
How it was run: as §1

[4] = test system: E. faecalis VRE 29; assay: MIC, broth microdilution, vancomycin-resistant E. faecalis VRE 29 (VanA); type: cell-based, Enterococcus faecalis; conditions: for MIC: Enterococcus faecalis VRE 29 (vancomycin-resistant), read-out: MIC; for MIC-fold improvement vs. vancomycin: VRE 29, ratio of MIC of vancomycin and MIC of analogue
How it was run: as §1

[5] = test system: E. faecalis VRE 37; assay: MIC, broth microdilution, vancomycin-resistant E. faecalis VRE 37 (VanA); type: cell-based, Enterococcus faecalis; conditions: for MIC: Enterococcus faecalis VRE 37 (vancomycin-resistant), read-out: MIC; for MIC-fold improvement vs. vancomycin: VRE 37, ratio of MIC of vancomycin and MIC of analogue
How it was run: as §1

[6] = test system: Murine leukemia (L1210) cells; assay: Cytostatic activity, L1210 cell proliferation; type: cell-based; conditions: mean ± SD of three experiments; highest concentration tested 250 µM; 2 days; read-out: Toxicity (IC50) L1210
How it was run: (§2)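 Coulter counter cell counts after 37°C culture with compound; IC50 = concentration giving 50% growth inhibition vs negative control. Incubation: L1210 2 d, CEM 3 d, HeLa 4 d. Suspension density before mixing with an equal volume of dilution: 300,000–500,000 cells/mL.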

[7] = test system: human T-lymphocyte (CEM) cells; assay: Cytostatic activity, CEM cell proliferation; type: cell-based; conditions: mean ± SD of three experiments; highest concentration tested 250 µM; 3 days; read-out: Toxicity (IC50) CEM
How it was run: as §2

[8] = test system: human cervix carcinoma (HeLa) cells; assay: Cytostatic activity, HeLa cell proliferation; type: cell-based; conditions: mean ± SD of three experiments; highest concentration tested 250 µM; 4 days; read-out: Toxicity (IC50) HeLa
How it was run: as §2

[9] = test system: L1210, CEM and HeLa cell lines; assay: Cytostatic activity, average or summary over L1210, CEM and HeLa; type: cell-based; conditions: average of L1210, CEM and HeLa; read-out: Toxicity (IC50) Average
How it was run: as §2

[10] = test system: S. aureus VSSA (ATCC 6538); assay: MIC, broth microdilution, vancomycin-sensitive S. aureus (VSSA/MSSA, ATCC 6538); type: cell-based, Staphylococcus aureus; conditions: for MIC: Staphylococcus aureus VSSA, read-out: MIC; for MIC-fold improvement vs. vancomycin: VSSA, ratio of MIC of vancomycin and MIC of analogue
How it was run: as §1

[11] = test system: S. aureus VISA/HIP5827; assay: MIC, broth microdilution, vancomycin-intermediate S. aureus VISA HIP5827; type: cell-based, Staphylococcus aureus; conditions: for MIC: Staphylococcus aureus VISA/HIP5827, read-out: MIC; for MIC-fold improvement vs. vancomycin: VISA/HIP5827, ratio of MIC of vancomycin and MIC of analogue
How it was run: as §1

[12] = test system: S. aureus VRSA; assay: MIC, broth microdilution, vancomycin-resistant S. aureus (VRSA); type: cell-based, Staphylococcus aureus; conditions: for MIC: Staphylococcus aureus VRSA, read-out: MIC; for MIC-fold improvement vs. vancomycin: VRSA, ratio of MIC of vancomycin and MIC of analogue
How it was run: as §1

[13] = test system: MRSA KS2; assay: MIC, broth microdilution, MRSA KS2; type: cell-based, Staphylococcus aureus; conditions: for MIC-fold improvement vs. vancomycin: MRSA KS2, ratio of MIC of vancomycin and MIC of analogue; for MIC: Staphylococcus aureus MRSA KS2, read-out: MIC
How it was run: as §1

[14] = test system: MRSA KS6; assay: MIC, broth microdilution, MRSA KS6; type: cell-based, Staphylococcus aureus; conditions: for MIC-fold improvement vs. vancomycin: MRSA KS6, ratio of MIC of vancomycin and MIC of analogue; for MIC: Staphylococcus aureus MRSA KS6, read-out: MIC
How it was run: as §1

[15] = test system: MRSA KS89; assay: MIC, broth microdilution, MRSA KS89; type: cell-based, Staphylococcus aureus; conditions: for MIC-fold improvement vs. vancomycin: MRSA KS8, ratio of MIC of vancomycin and MIC of analogue; for MIC: Staphylococcus aureus MRSA KS8, read-out: MIC
How it was run: as §1

[16] = test system: MRSA KS1; assay: MIC, broth microdilution, MRSA KS1; type: cell-based, Staphylococcus aureus; conditions: for MIC-fold improvement vs. vancomycin: MRSA KS1, ratio of MIC of vancomycin and MIC of analogue; for MIC: Staphylococcus aureus MRSA KS1, read-out: MIC
How it was run: as §1

Compound	MIC [1] [µM]	MIC-fold improvement vs. vancomycin [1]	MIC [2] [µM]	MIC-fold improvement vs. vancomycin [2]	MIC [3] [µM]	MIC-fold improvement vs. vancomycin [3]	MIC [4] [µM]	MIC-fold improvement vs. vancomycin [4]	MIC [5] [µM]	MIC-fold improvement vs. vancomycin [5]	IC50 [6] [µM]	IC50 [7] [µM]	IC50 [8] [µM]	IC50 [9] [µM]	MIC [10] [µM]	MIC-fold improvement vs. vancomycin [10]	MIC [11] [µM]	MIC-fold improvement vs. vancomycin [11]	MIC [12] [µM]	MIC-fold improvement vs. vancomycin [12]	other results
CCOc1ccc(-c2ccc(NC(=O)CNC(=O)C3NC(=O)C4NC(=O)C(NC(=O)C5NC(=O)C(CC(N)=O)NC(=O)C(NC(=O)C(CC(C)C)NC)C(O)c6ccc(c(Cl)c6)Oc6cc5cc(c6OC5OC(CO)C(O)C(O)C5OC5CC(C)(N)C(O)C(C)O5)Oc5ccc(cc5Cl)C4O)c4ccc(O)c(c4)-c4c(O)cc(O)cc43)cc2)cc1 (stereo not shown) [Vanc-86]	≤0.05	≥32	1.56 (≈ 2.65 µg/mL)	128	12.5 (≈ 21.3 µg/mL)	32	3.13 (≈ 5.33 µg/mL)	128	6.25 (≈ 10.6 µg/mL)	64	3 ± 2.3	1 ± 0.2	9.8 ± 5.8	5	0.39 (≈ 0.664 µg/mL)	2	0.78 (≈ 1.33 µg/mL)	8	1.56 (≈ 2.65 µg/mL)	64	MIC-fold improvement vs. vancomycin [13]: 4; MIC [13]: 0.20 µM (≈ 0.34 µg/mL); MIC-fold improvement vs. vancomycin [14]: 2; MIC [14]: 0.39 µM (≈ 0.664 µg/mL); MIC-fold improvement vs. vancomycin [15]: 2; MIC [15]: 0.39 µM (≈ 0.664 µg/mL); MIC-fold improvement vs. vancomycin [16]: 4; MIC [16]: 0.20 µM (≈ 0.34 µg/mL)
CNC(CC(C)C)C(=O)NC1C(=O)NC(CC(N)=O)C(=O)NC2C(=O)NC3C(=O)NC(C(=O)NC(C(=O)NCC(=O)Nc4ccc(C(=O)c5ccccc5)cc4)c4cc(O)cc(O)c4-c4cc3ccc4O)C(O)c3ccc(c(Cl)c3)Oc3cc2cc(c3OC2OC(CO)C(O)C(O)C2OC2CC(C)(N)C(O)C(C)O2)Oc2ccc(cc2Cl)C1O (stereo not shown) [Vanc-88]	≤0.05	≥32	1.56 (≈ 2.63 µg/mL)	128	12.5 (≈ 21.1 µg/mL)	32	1.56 (≈ 2.63 µg/mL)	256	3.13 (≈ 5.28 µg/mL)	128	127 ± 32	32 ± 1	98 ± 23	86	0.39 (≈ 0.657 µg/mL)	2	0.39 (≈ 0.657 µg/mL)	16	0.78 (≈ 1.31 µg/mL)	128	MIC-fold improvement vs. vancomycin [13]: 8; MIC [13]: 0.10 µM (≈ 0.169 µg/mL); MIC-fold improvement vs. vancomycin [14]: 2; MIC [14]: 0.39 µM (≈ 0.657 µg/mL); MIC-fold improvement vs. vancomycin [15]: 4; MIC [15]: 0.20 µM (≈ 0.337 µg/mL); MIC-fold improvement vs. vancomycin [16]: 8; MIC [16]: 0.10 µM (≈ 0.169 µg/mL)
CNC(CC(C)C)C(=O)NC1C(=O)NC(CC(N)=O)C(=O)NC2C(=O)NC3C(=O)NC(C(=O)NC(C(=O)NCC(=O)Nc4ccc5c(c4)C(=O)c4ccccc4-5)c4cc(O)cc(O)c4-c4cc3ccc4O)C(O)c3ccc(c(Cl)c3)Oc3cc2cc(c3OC2OC(CO)C(O)C(O)C2OC2CC(C)(N)C(O)C(C)O2)Oc2ccc(cc2Cl)C1O (stereo not shown) [Vanc-89]	≤0.05	≥32	3.13 (≈ 5.27 µg/mL)	64	12.5 (≈ 21 µg/mL)	32	6.25 (≈ 10.5 µg/mL)	64	6.25 (≈ 10.5 µg/mL)	64	71 ± 56	38 ± 10	154 ± 30	88	0.10 (≈ 0.168 µg/mL)	8	0.78 (≈ 1.31 µg/mL)	8	0.78 (≈ 1.31 µg/mL)	128	MIC-fold improvement vs. vancomycin [13]: 8; MIC [13]: 0.10 µM (≈ 0.168 µg/mL); MIC-fold improvement vs. vancomycin [14]: 4; MIC [14]: 0.20 µM (≈ 0.337 µg/mL); MIC-fold improvement vs. vancomycin [15]: 4; MIC [15]: 0.20 µM (≈ 0.337 µg/mL); MIC-fold improvement vs. vancomycin [16]: 8; MIC [16]: 0.10 µM (≈ 0.168 µg/mL)
CNC(CC(C)C)C(=O)NC1C(=O)NC(CC(N)=O)C(=O)NC2C(=O)NC3C(=O)NC(C(=O)NC(C(=O)NCC(=O)NC4c5ccccc5-c5ccccc54)c4cc(O)cc(O)c4-c4cc3ccc4O)C(O)c3ccc(c(Cl)c3)Oc3cc2cc(c3OC2OC(CO)C(O)C(O)C2OC2CC(C)(N)C(O)C(C)O2)Oc2ccc(cc2Cl)C1O (stereo not shown) [Vanc-90]	≤0.05	≥32	1.56 (≈ 2.6 µg/mL)	128	12.5 (≈ 20.9 µg/mL)	32	3.13 (≈ 5.23 µg/mL)	128	3.13 (≈ 5.23 µg/mL)	128	175 ± 106	68 ± 8	127 ± 27	123	0.10 (≈ 0.167 µg/mL)	8	0.39 (≈ 0.651 µg/mL)	16	0.78 (≈ 1.3 µg/mL)	128	MIC-fold improvement vs. vancomycin [13]: 8; MIC [13]: 0.10 µM (≈ 0.167 µg/mL); MIC-fold improvement vs. vancomycin [14]: 4; MIC [14]: 0.20 µM (≈ 0.334 µg/mL); MIC-fold improvement vs. vancomycin [15]: 4; MIC [15]: 0.20 µM (≈ 0.334 µg/mL); MIC-fold improvement vs. vancomycin [16]: 8; MIC [16]: 0.10 µM (≈ 0.167 µg/mL)
